# Where two headings read alike, the source gives them in different places.
# Experiments:
# A. fumigatus C111 = assay: Antifungal MIC/MLC (broth microdilution); type: cell-based, Aspergillus fumigatus; conditions: A. fumigatus C111, resistant to azoles
# Method: (§1) The antifungal activity of compound 1 was evaluated for a wide range of fungal species, covering yeasts and filamentous fungi, including dermatophytes. […] This antimicrobial effect was fungicidal, with minimal lethal concentrations (MLC) being equal to, or one or two-fold higher than the respective MIC. Twenty-three fungal strains were used in this study, including reference strains and clinical isolates of yeasts and filamentous fungi. Yeast strains included reference strains (ATCC—American Type Culture Collection and CECT—Colección Española de Cultivos Tipo) and clinical isolates: C. albicans ATCC 10231, Candida krusei ATCC 6258, C. albicans H37, C. albicans FF172, C. albicans FF176, C. albicans DSY294, C. albicans DSY296, C. glabrata DSY562, C. glabrata DSY565 and Cryptococcus neoformans CECT 1078. Filamentous fungi included Aspergillus fumigatus ATCC 240305, A. fumigatus C111, A. niger ATCC 16404, A. flavus F44, Fusarium solani FF125, F. oxysporum FF115, and dermatophytes Trichophyton rubrum FF5, T. mentagrophytes FF7, Microscoporum canis FF1 and Nannizzia gypsea FF3 (formerly Microsporum gypseum) and a species of genera Mucor, Lichetheimia and Scedosporium. Saprolegnia parasitica CBS 223.65, a reference strain of an oomycete fish pathogen, was also included. All microorganisms were kept in Sabouraud Dextrose Broth (SDB: BioMérieux, Marcy L'Etoile, France) plus glycerol (20%) at −80° C. The strains were kept in Sabouraud Dextrose Agar (SDA: BioMérieux, Marcy L'Etoile, France) slants and were sub-cultured in SDA before each test. S. parasitica was kept in Corn Meal Agar plates (CMA: BBL™ Corn Meal Agar, BD, Le Pont-de-Claix, France) and was sub-cultured in CMA before each experiment. C. albicans H37, was kindly provided by Cidilia Pina Vaz (CHSJ, Porto, Portugal) and C. albicans DSY294, C. albicans DSY296, C. glabrata DSY562, C. glabrata DSY565 were kindly provided by D. Sanglard (University of Lausanne, Switzerland). A stock solution of compound 1 (10 mg/mL), was prepared in dimethyl sulfoxide (DMSO 99%: Alfa Aesar, Kandel, Germany), kept at −20 degrees C., and freshly diluted in the appropriate culture media before each assay. In all experiments, in-test concentrations of DMSO were kept below 2%. Fluconazole (Alfa Aesar, Ward Hill, MA, USA) was tested as commercial antifungal.
# (§2) Antifungal activity was evaluated by determining the MIC of compound 1 by the broth microdilution method, according to CLSI guidelines (reference documents M27-A3 for yeasts and M38-A2 for filamentous fungi). […] The minimal lethal concentration (MLC) was determined by spreading 20 μL of culture collected from wells showing no visible growth on SDA plates. The MLC was determined as the lowest concentration showing complete growth inhibition after 48 h at 35 degrees C., 48 h at 25 degrees C. […]
# C. krusei ATCC 6258 = assay: Antifungal MIC/MLC (broth microdilution); type: cell-based, Candida krusei
# Method: as §1, §2
# [1] = test system: Pseudomonas aeruginosa ATCC 27853; assay: Kirby-Bauer disk diffusion; type: cell-based; conditions: 15 μg per disk
# Method: (§3) An initial screening of the antibacterial activity of the compounds was performed by the Kirby-Bauer disk diffusion method, as recommended by the Clinical and Laboratory Standards Institute (CLSI). Briefly, sterile 6 mm blank paper disks (Oxoid, Basingstoke, England) impregnated with 15 μg of each compound were placed on inoculated MH agar plates. A blank disk with dimethylsulfoxide (DMSO) was used as a negative control. MH inoculated plates were incubated for 18-20 h at 37 degrees C. At the end of incubation, the inhibition halos where measured. The MIC was used to determine the antibacterial activity of each compound, in accordance with the recommendations of the CLSI. Two-fold serial dilutions of the compounds were prepared in Mueller-Hinton Broth 2 (MHB2—Sigma-Aldrich, St. Louis, MO, USA) within the concentration range of 0.062-64 μg/mL. CTX ranging between 0.031-16 μg/mL was used as a control. Sterility and growth controls were included in each assay. Purity checks and colony counts of the inoculum suspensions were also performed in order to ensure that the final inoculum density closely approximates the intended number (5×10^5 CFU/mL). The MIC was determined as the lowest concentration of compound that inhibited growth of the bacteria. The MBC was assessed by spreading 10 μL of culture collected from wells showing no visible growth on MH agar plates. […] These assays were performed in duplicate.
# [2] = test system: Staphylococcus aureus ATCC 29213; assay: Kirby-Bauer disk diffusion; type: cell-based; conditions: 15 μg per disk
# Method: as §3
# [3] = test system: Escherichia coli ATCC 25922; assay: Kirby-Bauer disk diffusion; type: cell-based; conditions: 15 μg per disk
# Method: as §3
# E. coli SA/2 (ESBL) = assay: Kirby-Bauer disk diffusion; type: cell-based; conditions: 15 μg per disk
# Method: as §3
# S. aureus 66/1 = assay: Checkerboard synergy with OXA; type: cell-based, Staphylococcus aureus
# Method: The combined effect of compound 1 and CTX for E. coli SA/2, VAN for E. faecalis B3/101, COL for E. coli 2252, erythromycin for E. coli ATCC 25922, and OXA for S. aureus 66/1 was evaluated by the checkerboard method. […] The interaction between compound 1 and erythromycin was assessed for E. coli ATCC 25922. Gram-negative bacteria are intrinsically resistant to erythromycin, a macrolide that inhibits protein synthesis, and cannot penetrate the outer membrane of Gram-negative bacteria, which is impermeable to hydrophobic antibiotics. Ascertain ceragenins have been previously described to be able to enhance the efficacy of such antibiotics, this possibility was investigated for compound 1 and a FICI of 0.6 was obtained.
# S. aureus 66/1 (MRSA) = assay: Kirby-Bauer disk diffusion; type: cell-based, Staphylococcus aureus; conditions: 15 μg per disk
# Method: An initial screening of the antibacterial activity of the compounds was performed by the Kirby-Bauer disk diffusion method, as recommended by the Clinical and Laboratory Standards Institute (CLSI). Briefly, sterile 6 mm blank paper disks (Oxoid, Basingstoke, England) impregnated with 15 μg of each compound were placed on inoculated MH agar plates. A blank disk with dimethylsulfoxide (DMSO) was used as a negative control. MH inoculated plates were incubated for 18-20 h at 37 degrees C. At the end of incubation, the inhibition halos where measured. The MIC was used to determine the antibacterial activity of each compound, in accordance with the recommendations of the CLSI. Two-fold serial dilutions of the compounds were prepared in Mueller-Hinton Broth 2 (MHB2—Sigma-Aldrich, St. Louis, MO, USA) within the concentration range of 0.062-64 μg/mL. CTX ranging between 0.031-16 μg/mL was used as a control. Sterility and growth controls were included in each assay. Purity checks and colony counts of the inoculum suspensions were also performed in order to ensure that the final inoculum density closely approximates the intended number (5×10^5 CFU/mL). The MIC was determined as the lowest concentration of compound that inhibited growth of the bacteria. The MBC was assessed by spreading 10 μL of culture collected from wells showing no visible growth on MH agar plates. […]
# [4] = C. krusei ATCC 6258, intrinsically resistant to fluconazole
Structure (SMILES),MLC (A. fumigatus C111) [µg/mL],"MIC (A. fumigatus C111; Aspergillus fumigatus, read-out: MIC) [µg/mL]",MLC (C. krusei ATCC 6258; [4]) [µg/mL],"MIC (C. krusei ATCC 6258; Pichia kudriavzevii, ATCC6258, read-out: MIC) [µg/mL]",MIC (A. fumigatus C111) [µg/mL],Disk diffusion [1] [mm],Disk diffusion [2] [mm],Disk diffusion [3] [mm],Disk diffusion (E. coli SA/2 (ESBL)) [mm],combined effect with OXA (in words) (S. aureus 66/1),Disk diffusion (S. aureus 66/1 (MRSA)) [mm],MIC (C. krusei ATCC 6258; [4]) [µg/mL]
"OC(Cn1cncn1)(Cn1cncn1)c1ccc(F)cc1F [Fluconazole, reference compound]",>128,≥ 128,>128,32,–,–,–,–,–,–,–,–
"C[C@H](CCC(=O)NCCN)[C@H]1CC[C@H]2[C@@H]3CC[C@@H]4C[C@H](O)CC[C@]4(C)[C@H]3C[C@H](O)[C@]12C [Compound 1, (R)—N-(2-aminoethyl)-4-((3R,5R,8R,9S,10S,12S,13R,14S,17R)-3,12-dihydroxy-10,13-dimethylhexadecahydro-1H-cyclopenta[a]phenanthren-17-yl) pentanamida]",>128,–,64,–,128,8,13,8,8,No synergistic interactions,11,64
